Counter-ions that a name gives are not always drawn.
Columns and labels:
Newcastle disease virus = test: microbe, parasite or virus in culture; assay type: cell-based; details: for MIC: avian paramyxovirus 1, in Gallus gallus, 48 h, read-out: Minimum growth-inhibition concentration
in vitro = details: chicken, chick embryo fibroblast

| Compound | MIC (Newcastle disease virus) | MCC at 48 h (in vitro) | inhibitory effect on the growth of viruses (in words) (Newcastle disease virus; compared with 1-aminotricyclo[4.3.1.1^2,5 ]undecane) | inhibitory effect on the growth of Newcastle disease virus (in words) (Newcastle disease virus; in chick embryo fibroblasts) | fraction of the concentration of 1-aminotricyclo[4.3.1.1^2,5 ]undecane at which virus multiplication is inhibited (Newcastle disease virus; relative to 1-aminotricyclo[4.3.1.1^2,5 ]undecane, Newcastle disease virus in chick embryo fibroblasts) | fraction of the concentration of adamantylamine hydrochloride at which virus multiplication is inhibited (Newcastle disease virus; relative to adamantylamine hydrochloride, Newcastle disease virus in chick embryo fibroblasts) |
| --- | --- | --- | --- | --- | --- | --- |
| Cl.NC12CCCC(C1)C1CCC2C1 (stereo not shown) [1-Aminotricyclo-[4.3.1.1^2,5]undecane hydrochloride, reference compound] | 87 µg/mL | 87 µg/mL | – | – | – | – |
| Cl.NCC12CCCC(C1)C1CCC2C1 (stereo not shown) [1-aminomethyltricyclo[4.3.1.1^2,5]undecane hydrochloride] | 40 µg/mL | 40 µg/mL | – | – | – | – |
| NCC12CCCC(C1)C1CCC2C1 (stereo not shown) [compound of the formula (I), 1-aminomethyltricyclo[4.3.1.1^2,5]undecane] | – | – | inhibitory effect on the growth of viruses at a lower concentration than the earlier compound | excellent inhibitory effect | 1/2 | about 1/6 |
| NC12CC3CC(CC(C3)C1)C2 [Adamantylamine hydrochloride, reference compound] | 250 µg/mL | 250 µg/mL | – | – | – | – |

— US4229375A (priority 1977, dated 1980)
